For 17 compounds, IC50 results are on record in US20240174648A1, “Small Molecule Compound” (Technoderma Medicines Pte Ltd, priority 2019, published 2024).

Common to all, as to type: biochemical
The target in assay [1] is Tyk2 (Homo sapiens, UniProt P29597). Description: JAK kinase inhibition assay (EZ Reader, peptide substrate phosphorylation) - Tyk2. As to conditions: Tyk2 kinase 1 nM; 8 concentration points, max 10 μM. Put shortly: (§1)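 Microfluidic mobility-shift detection of fluorescent peptide substrate phosphorylation, with JAK1 at 20 nM and JAK2, JAK3 and Tyk2 each at 1 nM final, in 20 mM HEPES pH 7.4, 10 mM MgCl2, 1 mM DTT. Reactions run at room temperature to 20–30% conversion, then EDTA-stopped. Compounds tested at 8 three-fold dilutions from 10 μM top final; IC50 from conversion curves.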

Assay [2] deals with JAK1 (Homo sapiens, UniProt P23458). Description: JAK kinase inhibition assay (EZ Reader, peptide substrate phosphorylation) - JAK1. As to conditions: JAK1 kinase 20 nM; 8 concentration points, max 10 μM. An outline of the steps: as §1
Assay [3] concerns the target JAK2 (Homo sapiens, UniProt O60674). Put plainly: JAK kinase inhibition assay (EZ Reader, peptide substrate phosphorylation) - JAK2. The following applies: JAK2 kinase 1 nM; 8 concentration points, max 10 μM. The text has this: (§2) Assay for Identifying Inhibitory Effects of Compounds on JAK Kinases
(§3) Janus kinases (JAK), including JAK1, JAK2, JAK3 and Tyk2, transduce a cytokine-mediated signal through a JAK-STAT pathway. The kinases are 120-140 kDa in size and have 7 determined homology regions: JH1 to JH7. JH1 is an important region for enzymatic activity and has typical characteristics of tyrosine kinases. Phosphorylation of tyrosine leads to a change in the conformation of JAK protein, thereby promoting binding of substrate. The JAK-STAT system includes three main parts: receptors penetrating a cell membrane, Janus kinases binding to the receptors, and signal transducers and activators of transcription (STAT) for transmitting signals to a nucleus and DNA. When cytokines bind to receptors, JAK phosphorylates the receptors and attracts STAT proteins. The STAT proteins are also phosphorylated and combined with one another to form dimers. The dimers enter the nucleus and bind to DNA, thereby leading to gene transcription.
(§4) EZ Reader from PerkinElmer can be used to detect the phosphorylation of polypeptide substrates catalyzed by kinases. The device is based on microfluidic techniques, and can directly detect fluorescently labeled substrates and products. The separation step is achieved by controlling the pressure and electric field strength in the microfluidic chip. In kinase assays, a product conversion ratio is usually controlled to be 20-30%. A biological test is used to identify inhibitory effects of compounds on JAKs.
(§5) Compound powder was dissolved in DMSO, sealed and stored in a freezer under −20° C. The in-house compound Ref1 was used as a positive control for JAK1, JAK2 and Tyk2 tests, and Ref2 was used as a positive control for JAK3 tests.
(§6) S2.8. Assay buffer: 20 mM HEPES buffer, pH 7.4, 10 mM magnesium chloride, 0.01% bovine serum albumin BSA, 0.0005% Tween-20 and 1 mM dithiothreitol solution.
(§7) S2.9. Stop buffer: 180 mM HEPES buffer, 20 mM ethylenediaminetetraacetic acid and 0.2% coating reagent 3.
(§8) S2.10. Separation buffer: 100 mM HEPES buffer, 10 mM ethylenediaminetetraacetic acid, 0.0005% Tween 20, 0.1% coating reagent 3 and 1% dimethyl sulfoxide.
The compound was dissolved in dimethyl sulfoxide and diluted to 10 mM concentration, a certain volume of solution was taken and diluted to 0.6 mM concentration, 10 μL of the 0.6 mM dilution was added to a 384-well microplate, and then was diluted 3-fold with a total of 8 concentration points.
Positive control (HPE1): Ref1, final concentration: 10 μM […]
(§9) Negative control (ZPE): DMSO, final content: 1.6%
(§10) Compounds: maximum final concentration: 10 μM; 3-fold dilution, 8 concentration points and 2 duplicates.
(§11) S4.1. 250 nL of the compound was added to each well of the assay microplate by using ECHO, and centrifuged at 1000 rpm for 1 minute.
(§12) S4.2. 5 μL of the assay buffer was added and agitated for a few seconds to fully dissolve the compound.
(§13) S4.3. 5 μL of 3× substrate solution and 5 μL of 3× kinase solution were added and centrifuged at 800 rpm for 1 minute.
(§14) S4.4. Final concentrations of JAK1, JAK2, JAK3 and Tyk2 kinases in the reaction system were 20 nM, 1 nM, 1 nM and 1 nM respectively.
(§15) S4.5. Incubation at room temperature, where kinases had time differences, and different batches of kinases had time differences.
(§16) S4.6. When 20%-30% of the reaction completed, 15 μL of stop buffer was added to stop the reaction, and centrifuged at 1000 rpm for 2 minutes.
(§17) S4.7. The microplates were placed on EZ Reader for reading.
(§18) S4.8. Readings on EZ Reader were calculated by using a peak height, where product conversion ratio (%)=product/(product+substrate)*100.
(§19) 5. Data Processing: IC50 calculation
(§20) A graphing software Xlfit was used to form a concentration curve of the test compound, and an IC50 value was calculated.
(§21) “A” means “≥10 μM”; “B” means “≥1 μM and <10 μM”; “C” means “≥0.1 μM and <1 μM”; and “D” means “<0.1 μM”.

Assay [4] concerns the target T1, JAK3 (Homo sapiens, UniProt P52333).
T1 sequence (P52333 1-1124): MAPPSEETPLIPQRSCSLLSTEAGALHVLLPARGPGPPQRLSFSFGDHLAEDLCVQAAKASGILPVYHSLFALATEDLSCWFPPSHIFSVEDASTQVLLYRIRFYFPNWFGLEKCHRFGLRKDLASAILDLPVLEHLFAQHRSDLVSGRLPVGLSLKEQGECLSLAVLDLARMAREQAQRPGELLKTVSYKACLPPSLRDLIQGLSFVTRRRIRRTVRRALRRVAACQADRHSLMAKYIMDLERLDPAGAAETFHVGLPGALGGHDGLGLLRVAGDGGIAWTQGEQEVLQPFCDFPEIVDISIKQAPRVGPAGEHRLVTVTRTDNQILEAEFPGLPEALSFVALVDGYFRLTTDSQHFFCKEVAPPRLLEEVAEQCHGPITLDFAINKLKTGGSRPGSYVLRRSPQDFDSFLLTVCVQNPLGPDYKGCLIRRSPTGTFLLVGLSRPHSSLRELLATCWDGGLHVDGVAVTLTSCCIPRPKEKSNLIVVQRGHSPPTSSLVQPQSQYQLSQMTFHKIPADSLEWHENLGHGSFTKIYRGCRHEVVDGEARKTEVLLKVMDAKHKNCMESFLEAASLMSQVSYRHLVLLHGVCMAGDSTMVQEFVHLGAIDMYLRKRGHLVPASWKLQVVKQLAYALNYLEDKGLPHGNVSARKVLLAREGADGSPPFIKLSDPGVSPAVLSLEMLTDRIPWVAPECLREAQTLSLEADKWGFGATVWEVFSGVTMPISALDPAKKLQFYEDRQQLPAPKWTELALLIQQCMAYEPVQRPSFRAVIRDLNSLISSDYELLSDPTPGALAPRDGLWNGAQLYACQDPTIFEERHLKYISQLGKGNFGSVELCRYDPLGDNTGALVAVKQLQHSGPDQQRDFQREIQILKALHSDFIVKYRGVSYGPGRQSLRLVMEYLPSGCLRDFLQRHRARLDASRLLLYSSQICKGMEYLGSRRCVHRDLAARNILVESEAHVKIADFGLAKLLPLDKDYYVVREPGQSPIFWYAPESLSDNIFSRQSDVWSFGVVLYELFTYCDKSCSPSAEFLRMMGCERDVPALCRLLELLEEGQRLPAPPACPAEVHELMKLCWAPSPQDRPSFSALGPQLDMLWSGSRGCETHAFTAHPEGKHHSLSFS
Put plainly: JAK kinase inhibition assay (EZ Reader, peptide substrate phosphorylation) - JAK3. The following applies: JAK3 kinase 1 nM; 8 concentration points, max 10 μM.
Text: as §2, §3, §4, §5, §6, §7, §8
The compound was dissolved in dimethyl sulfoxide and diluted to 10 mM concentration, a certain volume of solution was taken and diluted to 0.6 mM concentration, 10 μL of the 0.6 mM dilution was added to a 384-well microplate, and then was diluted 3-fold with a total of 8 concentration points. […]
Positive control (HPE1): Ref2, final concentration: 10 μM
as §9, §10, §11, §12, §13, §14, §15, §16, §17, §18, §19, §20, §21

Chain of JAK1 (P23458 whole entry): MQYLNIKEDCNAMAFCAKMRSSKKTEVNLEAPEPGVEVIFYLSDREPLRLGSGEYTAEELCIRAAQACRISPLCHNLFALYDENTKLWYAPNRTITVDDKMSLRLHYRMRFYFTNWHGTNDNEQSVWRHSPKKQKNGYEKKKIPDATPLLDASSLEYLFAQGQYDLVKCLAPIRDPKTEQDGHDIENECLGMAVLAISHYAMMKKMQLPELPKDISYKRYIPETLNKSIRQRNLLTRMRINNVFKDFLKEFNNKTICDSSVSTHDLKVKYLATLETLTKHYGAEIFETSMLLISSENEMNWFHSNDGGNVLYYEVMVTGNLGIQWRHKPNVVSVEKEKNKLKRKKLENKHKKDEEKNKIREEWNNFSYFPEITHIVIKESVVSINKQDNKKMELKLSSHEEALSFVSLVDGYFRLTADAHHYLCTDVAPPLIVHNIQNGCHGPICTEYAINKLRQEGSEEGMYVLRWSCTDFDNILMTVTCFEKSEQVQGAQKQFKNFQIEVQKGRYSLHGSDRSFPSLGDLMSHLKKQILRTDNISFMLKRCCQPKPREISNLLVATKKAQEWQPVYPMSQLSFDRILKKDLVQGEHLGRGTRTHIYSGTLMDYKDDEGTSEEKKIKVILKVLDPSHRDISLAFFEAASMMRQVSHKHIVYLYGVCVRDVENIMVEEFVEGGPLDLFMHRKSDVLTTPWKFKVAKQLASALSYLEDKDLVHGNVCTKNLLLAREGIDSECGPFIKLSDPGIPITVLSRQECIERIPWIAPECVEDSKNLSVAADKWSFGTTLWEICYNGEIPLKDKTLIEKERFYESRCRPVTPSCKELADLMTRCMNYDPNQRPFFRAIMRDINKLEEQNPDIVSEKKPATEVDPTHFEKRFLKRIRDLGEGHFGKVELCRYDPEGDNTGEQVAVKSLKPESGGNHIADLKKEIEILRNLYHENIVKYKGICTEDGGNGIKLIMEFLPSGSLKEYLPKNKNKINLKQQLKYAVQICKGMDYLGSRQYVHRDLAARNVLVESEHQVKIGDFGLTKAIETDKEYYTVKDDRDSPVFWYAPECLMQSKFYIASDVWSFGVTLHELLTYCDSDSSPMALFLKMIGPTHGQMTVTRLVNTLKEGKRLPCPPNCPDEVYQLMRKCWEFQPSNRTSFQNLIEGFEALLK
Chain of JAK2 (O60674 whole entry): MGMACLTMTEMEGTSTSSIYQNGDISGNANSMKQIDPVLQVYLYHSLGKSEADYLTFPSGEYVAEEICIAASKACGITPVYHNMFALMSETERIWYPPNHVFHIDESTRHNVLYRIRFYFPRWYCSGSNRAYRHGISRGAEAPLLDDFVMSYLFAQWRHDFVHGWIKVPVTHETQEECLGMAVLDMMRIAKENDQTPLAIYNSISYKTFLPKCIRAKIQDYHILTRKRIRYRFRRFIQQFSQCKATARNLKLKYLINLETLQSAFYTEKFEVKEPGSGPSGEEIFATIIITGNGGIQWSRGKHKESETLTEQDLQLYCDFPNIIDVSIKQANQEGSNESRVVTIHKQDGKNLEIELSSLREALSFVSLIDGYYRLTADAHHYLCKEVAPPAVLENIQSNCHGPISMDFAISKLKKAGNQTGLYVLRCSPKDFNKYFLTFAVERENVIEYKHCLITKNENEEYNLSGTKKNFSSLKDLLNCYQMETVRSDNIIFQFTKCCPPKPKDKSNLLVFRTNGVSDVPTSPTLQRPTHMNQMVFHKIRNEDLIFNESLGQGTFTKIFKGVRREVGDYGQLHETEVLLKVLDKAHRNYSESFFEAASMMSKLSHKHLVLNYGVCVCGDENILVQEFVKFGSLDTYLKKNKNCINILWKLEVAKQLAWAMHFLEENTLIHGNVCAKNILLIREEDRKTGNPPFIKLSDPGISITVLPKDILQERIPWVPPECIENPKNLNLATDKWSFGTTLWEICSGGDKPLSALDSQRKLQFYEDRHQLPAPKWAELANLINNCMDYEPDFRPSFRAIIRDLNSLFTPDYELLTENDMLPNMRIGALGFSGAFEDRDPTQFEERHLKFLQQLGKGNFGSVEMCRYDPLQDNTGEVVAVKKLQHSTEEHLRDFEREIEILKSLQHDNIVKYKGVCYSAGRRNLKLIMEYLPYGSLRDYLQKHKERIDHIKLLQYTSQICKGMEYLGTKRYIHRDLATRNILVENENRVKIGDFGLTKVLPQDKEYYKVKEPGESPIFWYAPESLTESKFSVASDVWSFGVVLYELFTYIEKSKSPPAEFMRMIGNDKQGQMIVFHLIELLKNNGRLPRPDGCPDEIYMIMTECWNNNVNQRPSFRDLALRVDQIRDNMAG
Chain of Tyk2 (P29597 whole entry): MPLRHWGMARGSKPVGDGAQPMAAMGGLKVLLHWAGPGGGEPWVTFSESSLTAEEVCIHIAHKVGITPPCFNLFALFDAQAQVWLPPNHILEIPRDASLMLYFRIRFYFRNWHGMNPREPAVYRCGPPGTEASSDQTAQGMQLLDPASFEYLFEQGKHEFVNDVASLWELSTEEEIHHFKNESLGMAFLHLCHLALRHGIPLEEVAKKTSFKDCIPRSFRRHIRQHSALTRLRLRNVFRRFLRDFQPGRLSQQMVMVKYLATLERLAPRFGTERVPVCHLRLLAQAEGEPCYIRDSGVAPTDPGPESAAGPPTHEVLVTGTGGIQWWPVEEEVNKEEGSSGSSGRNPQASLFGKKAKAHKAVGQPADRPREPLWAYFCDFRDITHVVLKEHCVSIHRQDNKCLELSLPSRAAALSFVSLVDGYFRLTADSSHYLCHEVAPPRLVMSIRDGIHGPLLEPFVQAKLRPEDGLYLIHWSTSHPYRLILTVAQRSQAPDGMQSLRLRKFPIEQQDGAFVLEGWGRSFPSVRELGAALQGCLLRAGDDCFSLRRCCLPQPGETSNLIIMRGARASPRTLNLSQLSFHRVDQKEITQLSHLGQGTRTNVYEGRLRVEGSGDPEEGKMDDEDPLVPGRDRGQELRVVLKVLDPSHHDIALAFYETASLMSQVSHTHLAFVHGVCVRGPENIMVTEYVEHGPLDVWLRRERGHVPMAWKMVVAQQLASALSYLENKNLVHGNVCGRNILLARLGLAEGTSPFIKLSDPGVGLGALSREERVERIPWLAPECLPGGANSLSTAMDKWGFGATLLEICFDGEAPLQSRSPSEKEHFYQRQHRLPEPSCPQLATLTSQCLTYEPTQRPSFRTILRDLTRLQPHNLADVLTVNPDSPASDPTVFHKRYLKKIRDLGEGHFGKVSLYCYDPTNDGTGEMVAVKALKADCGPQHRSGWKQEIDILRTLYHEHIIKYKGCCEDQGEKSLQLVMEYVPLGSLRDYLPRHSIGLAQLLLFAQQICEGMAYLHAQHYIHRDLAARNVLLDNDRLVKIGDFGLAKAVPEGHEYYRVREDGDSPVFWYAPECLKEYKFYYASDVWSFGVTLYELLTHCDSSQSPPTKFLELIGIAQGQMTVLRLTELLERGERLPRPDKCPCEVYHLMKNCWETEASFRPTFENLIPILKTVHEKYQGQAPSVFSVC

In general, IC50 refers to the concentration that inhibits the measured activity by half. Low values mean greater potency, high ones weaker potency. Consider `Cn1cc(Nc2nccc(-c3ccc(C(=O)NCC(F)(F)F)cc3)n2)cn1` [TDM-180748, 4-(2-((1-methyl-1H-pyrazol-4-yl)amino)pyrimidin-4-yl)-N-(2,2,2-trifluoroethyl)benzamide], for which the concentration for half-maximal inhibition (IC50) lay within 0.1 to 1 µM in assay [1], 0.1 to 1 µM in assay [2], 0.1 to 1 µM in assay [3] and 1 to 10 µM in assay [4].

Regarding `Cn1cc(Nc2nccc(-c3ccc(C(=O)N4CCS(=O)(=O)CC4)cc3)n2)cn1` [TDM-180749], the IC50 in assay [1] was 1 to 10 µM; in assay [2] it was 1 to 10 µM; in assay [3], 1 to 10 µM; in assay [4], not below 10 µM.

`Cn1cc(Nc2nccc(-c3ccc(NC(=O)CC(F)(F)F)cc3)n2)cn1` [TDM-180754, 3,3,3-trifluoro-N-(4-(2-((1-methyl-1H-pyrazol-4-yl)amino)pyrimidin-4-yl)phenyl)propanamide]: the 50% inhibitory concentration (IC50) was 0.1 to 1 µM in assay [1], less than 0.1 µM in assay [2], less than 0.1 µM in assay [3] and 1 to 10 µM in assay [4].

As to `Cn1cc(Nc2nccc(-c3ccc(NC(=O)C4CC4)cc3)n2)cn1` [TDM-180755, N-(4-(2-((1-methyl-1H-pyrazol-4-yl)amino)pyrimidin-4-yl)phenyl)cyclopropanecarboxamide], the IC50 in assay [1] was less than 0.1 µM; in assay [2], less than 0.1 µM; in assay [3], less than 0.1 µM; in assay [4] it was 1 to 10 µM.

As to `Cn1cc(Nc2nccc(-c3ccc(NC(=O)CC4CC4)c4[nH]ncc34)n2)cn1` [TDM-180917, 2-cyclopropyl-N-(4-(2-((1-methyl-1H-pyrazol-4-yl)amino)pyrimidin-4-yl)-1H-indazol-7-yl)acetamide], the half-maximal inhibitory concentration (IC50) in assay [1] and in assay [2] was 0.1 to 1 µM in each case.

Regarding `CCS(=O)(=O)Nc1ncc(-c2ccnc(Nc3cnn(C)c3)n2)cn1` [TDM-180919, N-(2-((1-methyl-1H-pyrazol-4-yl)amino)-[4,5′-bipyrimidin]-2′-yl)ethanesulfonamide], the half-maximal inhibitory concentration (IC50) in assay [1] and in assay [2] was not below 10 µM each time.

With `Cn1cc(Nc2nccc(-c3ccc(NC(=O)CC4CC4)c4[nH]ccc34)n2)cn1` [TDM-180920], the IC50 in assay [1] and in assay [2] was 0.1 to 1 µM throughout.

Turning to `Cn1cc(Nc2nccc(-c3cnc(NS(=O)(=O)Cc4ccccc4)nc3)n2)cn1` [TDM-180921, N-(2-((1-methyl-1H-pyrazol-4-yl)amino)-[4,5′-bipyrimidin]-2′-yl)-1-phenylmethanesulfonamide], the IC50 in assay [1] and in assay [2] was not below 10 µM throughout.

For `Cn1cc(Nc2nccc(-c3ccc(NC(=O)CC#N)c4cc[nH]c34)n2)cn1` [TDM-180923], the IC50 in assay [1] is not below 10 µM; in assay [2], 0.1 to 1 µM.

For `Cn1cc(Nc2nccc(-c3ccc(NC(=O)CC(F)(F)F)c4cc[nH]c34)n2)cn1` [TDM-180924, 3,3,3-trifluoro-N-(7-(2-((1-methyl-1H-pyrazol-4-yl)amino)pyrimidin-4-yl)-1H-indol-4-yl)propanamide], the values for the 50% inhibitory concentration (IC50) in assay [1] and in assay [2] were 1 to 10 µM and 0.1 to 1 µM, respectively.

In the case of `Cn1cc(Nc2nccc(-c3ccc(NC(=O)C4CC4)c4cc[nH]c34)n2)cn1` [TDM-180926, N-(7-(2-((1-methyl-1H-pyrazol-4-yl)amino)pyrimidin-4-yl)-1H-indole-4-yl)cyclopropanecarboxamide], the IC50 in assay [1] and in assay [2] was not below 10 µM each time.

On to `Cn1cc(Nc2nccc(-c3ccc(NC(=O)C4CC4(F)F)c4cc[nH]c34)n2)cn1` (stereo not drawn) [TDM-180929, 2,2-difluoro-N-(7-(2-((1-methyl-1H-pyrazol-4-yl)amino)pyrimidin-4-yl)-1H-indol-4-yl)cyclopropane-1-carboxamide], for which the IC50 was not below 10 µM in assay [1] and 1 to 10 µM in assay [2].

For the compound `Cn1cc(Nc2nccc(-c3ccc(NC(=O)CC4CC4)c4cc[nH]c34)n2)cn1` [TDM-180933], the figures for the IC50 in assay [1] and in assay [2] were not below 10 µM and 1 to 10 µM, respectively.

`Cn1cc(Nc2nccc(-c3ccc(NC(=O)[C@@H]4CC4(F)F)cc3)n2)cn1` [TDM-180934]: the half-maximal inhibitory concentration (IC50) in assay [1] and in assay [2] was less than 0.1 µM throughout.

With `Cn1cc(Nc2nccc(-c3ccc(NC(=O)[C@@H]4CC4(F)F)nc3)n2)cn1` [TDM-180935, (S)-2,2-difluoro-N-(5-(2-((1-methyl-1H-pyrazol-4-yl)amino)pyrimidin-4-yl)pyridin-2-yl)cyclopropane-1-carboxamide], the IC50 in assay [1] and in assay [2] was less than 0.1 µM in each case.

On to `Cn1cc(Nc2nccc(-c3ccc(NC(=O)[C@H]4CC4(F)F)cc3)n2)cn1` [TDM-180936, (R)-2,2-difluoro-N-(4-(2-((1-methyl-1H-pyrazol-4-yl)amino)pyrimidin-4-yl)phenyl)cyclopropane-1-carboxamide], for which the half-inhibitory concentration (IC50) was 0.1 to 1 µM in assay [1] and less than 0.1 µM in assay [2].

As for `Cn1cc(Nc2nccc(-c3ccc(NC(=O)[C@H]4CC4(F)F)nc3)n2)cn1` [TDM-180939, (R)-2,2-difluoro-N-(5-(2-((1-methyl-1H-pyrazol-4-yl)amino)pyrimidin-4-yl)pyridin-2-yl)cyclopropane-1-carboxamide], the half-inhibitory concentration (IC50) is 0.1 to 1 µM in assay [1] and less than 0.1 µM in assay [2].
